Assay results published in patent US10576151B2, “Ciclopirox for use in modulation of glucose homeostasis” (UNIVERSITY OF SOUTH CAROLINA, priority 2015, dated 2020).
“Also recorded” adds a separate entry of the source.

Columns and labels:
C57BI/6 mice = assay: Intraperitoneal insulin tolerance (insulin sensitivity) test; assay type: in vivo
Procedure: Glucose Level Determination and Intraperitoneal Insulin Tolerance Test. Mice were fasted for 6 h. Glucose levels of mice were measured by an Accu-Chek Active meter (ROCHE) with blood sample obtained from the tail. For glucose tolerance, mice were injected i.p. with 2 g glucose/kg blood glucose was checked at different time points as indicated (at either 0, 30, 60, 90, 120, 160, 220 min.). For insulin resistance test, mice were injected intraperitoneally at a dose of 0.75 units/kg with human insulin (0.75 U/kg body weight; Sigma) at different time points as indicated, as for glucose tolerance after insulin injection and blood glucose was measured as described.

p21 = p21 expression in the pancreas of mice that received CPX (immunoblot); assay type: in vivo; conditions: wild type mice, oral CPX 0-25 mg/kg daily for 5 days; effect from as low as 5 mg/kg (FIG. 4)
Procedure: Western Blotting. The mouse islets were treated with CPX 20 μM for 24 h and lysed in RIPA buffer [50 mM Tris, pH 7.2; 150 mM NaCl; 1% sodium deoxycholate; 0.1% SDS; 1% Triton-X 100; 10 mM NaF; 1 mM Na3VO4; protease inhibitor cocktail (1:1000, Sigma, St. Louis, Mo.)] and were subjected to immunoblot analysis by standard methods. Proteins were resolved on a 10% SDS-PAGE and transferred to a nitrocellulose membrane (Bio-Rad, Hercules, Calif.). […] After incubation with enhanced chemiluminescence reagents (Santa Cruz biotechnology Inc.), membranes were analyzed using an Image J software for Windows. To determine if CPX treatment induces p21 levels in the pancreas, mice received orally CPX at 0-25 mg/kg daily for 5 days and the levels of p21 were assessed. […]

[1] = test system: wt mice receiving normal diet; assay: Fasting glucose in non-diabetic wild type mice on normal diet; assay type: in vivo, C57BI/6 mice; conditions: non-diabetic wt mice on normal diet with CPX (FIG. 5B, FIG. 7A)
From the text: In Vivo Analysis of Anti-Diabetic Effect of CPX. Mice were randomly grouped. A group of C57BI/6 mice 4-5 weeks old, were fed with either a solution of 10% sucrose and a diet containing 40% kcal as a high-fat diet (HFD; Open Source Diets (New Brunswick, N.J., USA) D12451, 40% calories/fat with free access to (10%) sweetened water (sucrose) or a control chow diet containing 10% of kcal as fat (low-fat diet) and drinking water with no added sucrose (control). Mice with a glucose concentration exceeding 180 mg/dL were considered diabetic, after 2 consecutive glucose measurements. The blood glucose levels were measured using an Accu-Check blood glucose monitor (Roche, Indianapolis, Ind., USA) using blood sample collected from the tail vein. […] Glucose levels of mice were measured by an Accu-Chek Active meter (ROCHE) with blood sample obtained from the tail. […] For insulin resistance test, mice were injected intraperitoneally at a dose of 0.75 units/kg with human insulin (0.75 U/kg body weight; Sigma) at different time points as indicated, as for glucose tolerance after insulin injection and blood glucose was measured as described. In order to test if the antidiabetic activity of CPX was elicited only in diabetic mice or in non-diabetic mice as well, plasma glucose levels were assessed in wt mice that were receiving normal diet in combination with CPX.

pancreatic islets = assay: Pancreatic islet numbers by histology (H&E); assay type: in vivo; conditions: diabetic mice treated with CPX (FIG. 8)
From the text: In Vivo Analysis of Anti-Diabetic Effect of CPX. Mice were randomly grouped. A group of C57BI/6 mice 4-5 weeks old, were fed with either a solution of 10% sucrose and a diet containing 40% kcal as a high-fat diet (HFD; Open Source Diets (New Brunswick, N.J., USA) D12451, 40% calories/fat with free access to (10%) sweetened water (sucrose) or a control chow diet containing 10% of kcal as fat (low-fat diet) and drinking water with no added sucrose (control). Mice with a glucose concentration exceeding 180 mg/dL were considered diabetic, after 2 consecutive glucose measurements. The blood glucose levels were measured using an Accu-Check blood glucose monitor (Roche, Indianapolis, Ind., USA) using blood sample collected from the tail vein. Diabetic mice were treated with either treated daily for 20 days by oral gavages with CPX (25 mg/kg) prepared in a solution (4% ethanol, 5.2% Tween 80, and 5.2% PEG 400) or vehicle control. Pancreata were preserved in 10% buffered formalin for later histological examination. Immunostaining. Pancreatic tissue samples were fixed at 10% buffered formalin, processed a defined paraffin-embedding procedure before embedding in paraffin, sectioning into 4-μm tissue sections, and stained with hematoxylin and eosin by standard methods.

Cc1cc(C2CCCCC2)n(O)c(=O)c1 [CPX, 6-cyclohexyl-1-hydroxy-4-methylpyridin-2(1H)-one]
insulin sensitivity (C57BI/6 mice; diabetic mice, CPX vs saline (FIG. 6B)): restored the response of diabetic mice to acute administration of glucose
insulin sensitivity (C57BI/6 mice; non-diabetic wt mice on normal diet, CPX vs saline (FIG. 7C)): not affected
p21 expression in the pancreas (p21): effectively stimulated the expression of p21
glucose levels (fasting) [1]: no reduction of glucose levels was recorded; also recorded: not affected
islet numbers (pancreatic islets): increased significantly
